What is called EC50 is the concentration giving half of the maximal effect.

The assay has as its target T1, human OX2R (Homo sapiens, UniProt O43614).
T1 construct: expressed in transfected cells; host or cells: CHO (Chinese hamster ovary) cells grown under G418 selection
T1 sequence (O43614 1-444): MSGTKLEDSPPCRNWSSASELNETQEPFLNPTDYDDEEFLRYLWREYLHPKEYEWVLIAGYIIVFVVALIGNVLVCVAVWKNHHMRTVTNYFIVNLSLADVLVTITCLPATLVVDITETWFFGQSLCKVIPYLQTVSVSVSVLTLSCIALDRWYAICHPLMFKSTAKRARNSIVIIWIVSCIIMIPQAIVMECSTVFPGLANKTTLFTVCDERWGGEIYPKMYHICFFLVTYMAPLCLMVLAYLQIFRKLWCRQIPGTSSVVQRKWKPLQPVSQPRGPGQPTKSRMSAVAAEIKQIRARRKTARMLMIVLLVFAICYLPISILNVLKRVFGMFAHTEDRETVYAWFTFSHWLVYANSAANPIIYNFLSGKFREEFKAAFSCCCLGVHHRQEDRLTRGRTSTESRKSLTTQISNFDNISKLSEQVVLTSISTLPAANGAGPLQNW
The experiment in a line: IPOne (IP-1 accumulation) assay in CHO cells expressing human OX2R. Type of assay: cell-based. Conditions: for EC50: CHO cells expressing human OX2R, IP-One assay, 2 h incubation, four parameter logistic fit, read-out: OX2R Potency, EC50; for % of maximum agonist effect (relative to Orexin A): percent effect vs mean max effect of a reference compound at 1 uM (100% activity vs Orexin A), human OX2R. The gist of the method: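 CHO cells stably expressing human OX2R, grown in Iscove's modified DMEM with 10% FBS; agonist-driven IP-1 accumulation via the Gαq pathway measured by HTRF (D2/AB-cryptate detection after lysis). EC50 taken as the inflection point of a four-parameter logistic fit.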

Take `CCN(C(=O)N[C@@H](CCC(F)(F)F)C(F)(F)F)C(=C(F)F)c1cc(-c2cn3ccnc3c(OC)n2)c(OC)cn1` [Example 28, (S)-1-(2,2-difluoro-1-(5-methoxy-4-(8-methoxyimidazo[1,2-a]pyrazin-6-yl)pyridin-2-yl)vinyl)-1-ethyl-3-(1,1,1,5,5,5-hexafluoropentan-2-yl)urea]: the concentration for a half-maximal effect (EC50) turned out to be 2.13 µM and the “% of maximum agonist effect (relative to Orexin A)” value amounted to 97.2%.

As for `CCN(C(=O)N[C@@H](CCC(F)(F)F)C(F)(F)F)[C@H](C)c1cnc(O)c(-c2cc(OC)n3nccc3c2)c1` [Example 30, 1-ethyl-3-((S)-1,1,1,5,5,5-hexafluoropentan-2-yl)-1-((R)-1-(6-hydroxy-5-(7-methoxypyrazolo[1,5-a]pyridin-5-yl)pyridin-3-yl)ethyl)urea], the EC50 was 4.73 µM and the “% of maximum agonist effect (relative to Orexin A)” value was 97.0%.

The values above are taken from patent US12692262B2, “Substituted ureas as orexin receptor agonists” (Merck Sharp & Dohme LLC, priority 2020, dated 2026).
